Data from US8183235B2, “Dihydronaphthalene compound and use thereof” (Tokyo University of Science Educational Foundation …, priority 2007, dated 2012).

What was measured:
[1] = molecular target: 20S proteasome chymotrypsin-like activity (Homo sapiens, UniProt P28074); experiment: Chymotrypsin-like activity inhibition test; type: biochemical
[2] = molecular target: 20S proteasome caspase-like activity (Homo sapiens, UniProt P28072); experiment: Caspase-like activity inhibition test; type: biochemical
[3] = molecular target: 20S proteasome trypsin-like activity (Homo sapiens, UniProt Q99436); experiment: Trypsin-like activity inhibition test; type: biochemical
Cathepsin B = experiment: Cathepsin-like activity inhibition test; type: biochemical
Method: Cathepsin-Like Activity Inhibition Test
(§1) 1) To 20S proteasome, naforidaifen B adjusted to a concentration of 10 μM was added, and incubated at 30° C. for 10 min.
2) To the above test system, fluorescence labeled cathepsin including a 20S proteasome segmenting sequence was added, and reacted for 1 hr at 30° C.
(§2) 3) The fluorescent substance (AMC) released by the above reaction was excited with 360 nm light and assayed with 460 nm light.
(§3) 4) A test system to which naforidaifen B was not added was measured in the same way as (1) to (3) above, and the enzyme activity for the case of using naforidaifen B was measured.
(§4) 5) Stepwise diluted solutions containing naforidaifen B were prepared, and after carrying out the same evaluations as in (1) to (4), the 50% inhibition concentration (IC50) was determined.
6) As a positive control of the enzyme activity, the known proteasome inhibitor Clasto-Lactacystin β-Lactone (Lactacystin activator) and MGI32 were evaluated with the steps (1) to (5).

α-chymotrypsin = α-chymotrypsin (Bos taurus, UniProt P00766); experiment: α-Chymotrypsin-like activity inhibition test; type: biochemical
Method: α-Chymotrypsin-Like Activity Inhibition Test
as §1
2) To the above test system, fluorescence labeled α-chymotrypsin including a 20S proteasome segmenting sequence was added, and reacted for 1 hr at 30° C.
as §2, §3, §4
6) As a positive control of the enzyme activity, the well-known proteasome inhibitor Clasto-Lactacystin β-Lactone (Lactacystin activator) and MGI32 were evaluated with the steps (1) to (5).

20S proteasome = 20S proteasome (Homo sapiens, UniProt P28072+P28074+Q99436); experiment: Proteasome inhibition activity, overall judgement; type: biochemical
SF-268 = experiment: Inhibition of propagation of central nervous system cancer cells (sulforhodamin B); type: cell-based; details: Homo sapiens, 48 h; SF-268, two days of cultivation
From the text: (§5) As a comparison for the inhibition activity, tamoxifen citrate (TAM) was used. In the Table, the concentration units are μM.

SF-295 = experiment: as above; type: cell-based; details: Homo sapiens, 48 h; SF-295, two days of cultivation
From the text: as §5

SF-539 = experiment: as above; type: cell-based; details: Homo sapiens, 48 h; SF-539, two days of cultivation
From the text: as §5

SNB-75 = experiment: as above; type: cell-based; details: Homo sapiens, 48 h; SNB-75, two days of cultivation
From the text: as §5

SNB-78 = experiment: as above; type: cell-based; details: Homo sapiens, 48 h; SNB-78, two days of cultivation
From the text: as §5

U251 = experiment: as above; type: cell-based; details: Homo sapiens, U-251, 48 h; U251, two days of cultivation
From the text: as §5

HCC2998 = experiment: Proliferation inhibition of colon cancer cells; type: cell-based; details: Homo sapiens, HCC 2998
Method: as §5
(§6) In the same way as in Example 9, the proliferation inhibition activity of naforidaifens A to G was measured with respect to five types of colon cancer cells (HCC2998, KM-12, HT-29, HCT-15, and HCT-116). In the Table, the concentration units are μM.

HCT-116 = experiment: Proliferation inhibition of colon cancer cells; type: cell-based; details: Homo sapiens
Method: as §5, §6

HCT-15 = experiment: Proliferation inhibition of colon cancer cells; type: cell-based; details: Homo sapiens
Method: as §5, §6

HT-29 = experiment: Proliferation inhibition of colon cancer cells; type: cell-based; details: Homo sapiens
Method: as §5, §6

KM-12 = experiment: Proliferation inhibition of colon cancer cells; type: cell-based; details: Homo sapiens, KM12
Method: as §5, §6

OVCAR-3 = experiment: Proliferation inhibition of ovarian cancer cells; type: cell-based; details: Homo sapiens
Method: as §5
(§7) In the same way as in Example 9, the proliferation inhibition activity of naforidaifens A to G was measured with respect to five types of ovarian cancer cells (OVCAR-3, OVCAR-4, OVCAR-5, OVCAR-8, AND SK-OV-3). In the Table, the concentration units are μM.

OVCAR-4 = experiment: Proliferation inhibition of ovarian cancer cells; type: cell-based; details: Homo sapiens
Method: as §5, §7

OVCAR-5 = experiment: Proliferation inhibition of ovarian cancer cells; type: cell-based; details: Homo sapiens
Method: as §5, §7

OVCAR-8 = experiment: Proliferation inhibition of ovarian cancer cells; type: cell-based; details: Homo sapiens
Method: as §5, §7

SK-OV-3 = experiment: Proliferation inhibition of ovarian cancer cells; type: cell-based; details: Homo sapiens
Method: as §5, §7

MKN1 = experiment: Proliferation inhibition of stomach cancer cells; type: cell-based; details: Homo sapiens, MKN-1
Method: as §5
(§8) In the same way as in Example 9, the proliferation inhibition activity of naforidaifens A to G was measured with respect to six types of stomach cancer cells (St-4, MKN1, MKN7, MKN28, MKN45, MKN74). In the Table, the concentration units are μM.

MKN28 = experiment: Proliferation inhibition of stomach cancer cells; type: cell-based; details: Homo sapiens, MKN-28
Method: as §5, §8

MKN45 = experiment: Proliferation inhibition of stomach cancer cells; type: cell-based; details: Homo sapiens, MKN-45
Method: as §5, §8

MKN74 = experiment: Proliferation inhibition of stomach cancer cells; type: cell-based; details: Homo sapiens, MKN-74
Method: as §5, §8

MKN7 = experiment: Proliferation inhibition of stomach cancer cells; type: cell-based; details: Homo sapiens, MKN-7
Method: as §5, §8

St-4 = experiment: Proliferation inhibition of stomach cancer cells; type: cell-based; details: Homo sapiens
Method: as §5, §8

[4] = tested on: central nervous system cancer cells; experiment: Proliferation inhibition, central nervous system cancer cell panel (summary); type: cell-based; details: in general with respect to various central nervous system cancer cells; read-out: cytotoxic activity (extent of effective concentration)
From the text: as §5

## c1ccc(C2=C(c3ccc(OCCN4CCCCC4)cc3)c3ccc(OCCN4CCCCC4)cc3CC2)cc1 [Naforidaifen C, 4-[4-(2-piperidine-1-yl-ethoxy)phenyl]-7-(2-piperidine-1-yl-ethoxy)-3-phenyl-1,2-dihydronaphthalene]
[1]
  IC50: 3200 nM
[1]; read-out: % Control, Chymotrypsin-like Activity
  remaining activity at 10 µM: 25.9%
[2]
  IC50: 5100 nM
[2]; read-out: % Control, Caspase-like Activity
  remaining activity at 10 µM: 31.3%
[3]
  IC50: > 10000 nM
[3]; read-out: % Control, Trypsin-like Activity
  remaining activity at 10 µM: 196%
Cathepsin B
  Cathepsin B inhibition: none
α-chymotrypsin
  α-chymotrypsin inhibition: none
20S proteasome; judgement
  Proteasome selectivity: present
20S proteasome; overall judgement positive/negative
  The evaluations (proteasome inhibition activity): positive
SF-268
  GI50: 1740 nM
SF-295
  GI50: 1740 nM
SF-539
  GI50: 1480 nM
SNB-75
  GI50: 1510 nM
SNB-78
  GI50: 1820 nM
U251
  GI50: 1480 nM
HCC2998
  GI50: 1350 nM
HCT-116
  GI50: 1170 nM
HCT-15
  GI50: 1380 nM
HT-29
  GI50: 550 nM
KM-12
  GI50: 1820 nM
OVCAR-3
  GI50: 1660 nM
OVCAR-4
  GI50: 2090 nM
OVCAR-5
  GI50: 1260 nM
OVCAR-8
  GI50: 2400 nM
SK-OV-3
  GI50: 2040 nM
MKN1
  GI50: 1660 nM
MKN28
  GI50: 2510 nM
MKN45
  GI50: 2140 nM
MKN74
  GI50: 1200 nM
MKN7
  GI50: 1550 nM
St-4
  GI50: 1580 nM
[4]
  IC50: 1400 to 1900 nM
